Consider 6 compounds from ChEMBL document CHEMBL3044870, “Effect of clomazone on various market classes of dry beans” (Crop Prot, 2007).

What all share (format): organism-based
Conditions in all cases: in vivo

Data set [1] concerns Phaseolus vulgaris. In words: Phytotoxicity against Phaseolus vulgaris (kidney bean) assessed as crop injury.
Data set [2] concerns Phaseolus vulgaris. Briefly: Phytotoxicity against Phaseolus vulgaris (white beans) assessed as crop injury.
The test system of data set [3] is Phaseolus vulgaris. Briefly: Phytotoxicity against Phaseolus vulgaris (white beans) assessed as reduction in plant height applied pre-emergence relative to control. More on the design: scale not given: the % may be the effect or the level left.
In data set [4] the test system is Phaseolus vulgaris. In words: Phytotoxicity against Phaseolus vulgaris (cranberry beans) assessed as crop injury.
The subject of data set [5] is Phaseolus vulgaris. In words: Phytotoxicity against Phaseolus vulgaris (black beans) assessed as reduction in plant height applied pre-emergence relative to control. More on the design: scale not given: the % may be the effect or the level left.
Data set [6] deals with Phaseolus vulgaris. Briefly: Phytotoxicity against Phaseolus vulgaris (pink beans) assessed as crop injury.
For data set [7], the system named is Phaseolus vulgaris. Briefly: Phytotoxicity against yellow eye bean assessed as reduction in plant height applied pre-emergence relative to control. More on the design: scale not given: the % may be the effect or the level left.
Data set [8] relates to Phaseolus vulgaris. In words: Phytotoxicity against Phaseolus vulgaris (black beans) assessed as reduction in shoot dry weight applied pre-emergence relative to control. More on the design: scale not given: the % may be the effect or the level left.
In data set [9] the test system is Phaseolus vulgaris. In words: Phytotoxicity against Phaseolus vulgaris (otebo beans) assessed as reduction in plant height applied pre-emergence relative to control. The arrangement: scale not given: the % may be the effect or the level left.
The test system of data set [10] is Phaseolus vulgaris. In words: Phytotoxicity against Phaseolus vulgaris (otebo beans) assessed as reduction in shoot dry weight applied pre-emergence relative to control. More on the design: scale not given: the % may be the effect or the level left.
Data set [11] concerns Phaseolus vulgaris. In words: Phytotoxicity against Phaseolus vulgaris (pinto beans) assessed as reduction in plant height applied pre-emergence relative to control. The arrangement: scale not given: the % may be the effect or the level left.
In data set [12] the test system is Phaseolus vulgaris. In words: Phytotoxicity against yellow eye bean assessed as reduction in shoot dry weight applied pre-emergence relative to control. The arrangement: scale not given: the % may be the effect or the level left.
The subject of data set [13] is Phaseolus vulgaris. Briefly: Phytotoxicity against Phaseolus vulgaris (pinto beans)s assessed as reduction in shoot dry weight applied pre-emergence relative to control. The arrangement: scale not given: the % may be the effect or the level left.
For data set [14], the system named is Phaseolus vulgaris. Briefly: Phytotoxicity against Phaseolus vulgaris (white beans) assessed as reduction in shoot dry weight applied pre-emergence relative to control. More on the design: scale not given: the % may be the effect or the level left.
Data set [15] concerns Phaseolus vulgaris. Briefly: Phytotoxicity against Phaseolus vulgaris (black beans) assessed as reduction in shoot dry weight relative to control. The arrangement: scale not given: the % may be the effect or the level left.

As for `CCc1cccc(CC)c1N(COC)C(=O)CCl` [ALACHLOR], the figures for the Activity in the data set on Phaseolus vulgaris [1] and in the data set on Phaseolus vulgaris [2] were 0.5% and 6%, respectively.

On to `C#CCN1C(=O)COc2cc(F)c(N3C(=O)C4=C(CCCC4)C3=O)cc21` [FLUMIOXAZIN], for which the Activity with Phaseolus vulgaris [3] was 28%; in the data set with Phaseolus vulgaris [4] it was 4%; in the data set on Phaseolus vulgaris [5], 23%; in the data set on Phaseolus vulgaris [2] it was 17%.

For the compound `CS(=O)(=O)NC(=O)c1cc(Oc2ccc(C(F)(F)F)cc2Cl)ccc1[N+](=O)[O-]` [FOMESAFEN], the Activity is listed as 1% with Phaseolus vulgaris [1] and 5% with Phaseolus vulgaris [6].

As for `CCc1cnc(C2=NC(C)(C(C)C)C(=O)N2)c(C(=O)O)c1` (stereo not given) [IMAZETHAPYR], the Activity in the data set with Phaseolus vulgaris [1] is recorded as 2%; in the data set with Phaseolus vulgaris [3], 40%; in the data set with Phaseolus vulgaris [5] it was 40%; in the data set with Phaseolus vulgaris [2] it was 11%.

Take `CON(C)C(=O)Nc1ccc(Cl)c(Cl)c1` [LINURON]: the Activity in the data set with Phaseolus vulgaris [3] was 24%; with Phaseolus vulgaris [7], 24%; with Phaseolus vulgaris [8] it was 26%; in the data set on Phaseolus vulgaris [9] it was 24%; in the data set on Phaseolus vulgaris [10], 26%; in the data set with Phaseolus vulgaris [4], 4%. The Activity in the data set with Phaseolus vulgaris [11] is reported as 24%; with Phaseolus vulgaris [5], 24%; in the data set on Phaseolus vulgaris [12], 26%; in the data set with Phaseolus vulgaris [2], 49%; in the data set with Phaseolus vulgaris [13] it was 26%; in the data set with Phaseolus vulgaris [14], 26%.

Regarding `CCc1cccc(C)c1N(C(=O)CCl)[C@@H](C)COC` [S-METOLACHLOR], the Activity in the data set with Phaseolus vulgaris [15] is 16%.
